Here are results for 21 compounds from US20170291905A1, “ARGININE […] INHIBITORS AND USES THEREOF” (Epizyme, Inc., priority 2014, published 2017).

For orientation: IC50 means the point on the concentration scale where inhibition reaches its midpoint. A lower IC50 goes with inhibition by little substance.

Chain of full-length human PRMT6 (Flag- and His-tagged) (Q96LA8 with tags, fused parts or gaps): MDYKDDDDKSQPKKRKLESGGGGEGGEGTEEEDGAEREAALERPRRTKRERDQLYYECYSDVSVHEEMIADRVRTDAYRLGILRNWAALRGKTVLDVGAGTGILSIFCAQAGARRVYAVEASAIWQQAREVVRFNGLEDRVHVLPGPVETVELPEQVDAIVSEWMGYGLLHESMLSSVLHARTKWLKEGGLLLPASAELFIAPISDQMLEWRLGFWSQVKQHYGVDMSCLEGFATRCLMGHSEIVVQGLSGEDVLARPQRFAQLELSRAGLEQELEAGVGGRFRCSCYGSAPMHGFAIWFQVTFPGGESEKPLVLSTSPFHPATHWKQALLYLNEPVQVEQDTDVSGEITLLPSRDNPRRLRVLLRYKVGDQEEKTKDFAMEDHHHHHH

For the test, the target named is full-length human PRMT6 (Flag- and His-tagged) (Homo sapiens, UniProt Q96LA8). Briefly: PRMT6 biochemical assay (3H-SAM Flashplate, histone H4 36-50 K44me1 peptide). The settings on record: 1 nM PRMT6, 30 min preincubation, 75 nM peptide. An excerpt:
S-adenosylmethionine (SAM), S-adenosylhomocysteine (SAH), bicine, Tween20, dimethylsulfoxide (DMSO), bovine skin gelatin (BSG), sodium butyrate and Tris(2-carboxyethyl)phosphine hydrochloride solution (TCEP) were purchased from Sigma-Aldrich at the highest level of purity possible. ^3H-SAM was purchase from American Radiolabeled Chemicals with a specific activity of 80 Ci/mmol. 384-well streptavidin Flashplates were purchased from PerkinElmer.
Peptide representative of human histone H4 residues 36-50 was synthesized with an N-terminal linker-affinity tag motif and a C-terminal amide cap by 21st Century Biochemicals. The peptide was purified by high-performance liquid chromatography (HPLC) to greater than 95% purity and confirmed by liquid chromatography mass spectrometry (LC-MS). The sequence was Biot-Ahx-[…]-amide and contained a monomethylated lysine at position 44 (SEQ ID NO.:5).
Full-length human PRMT6 (NM_018137.2) transcript clone was amplified from an HEK 293 cDNA library, incorporating a flanking 5′ sequence encoding a FLAG tag ([…]) (SEQ ID NO.:6) fused directly to Ser 2 of PRMT6 and a 3′ sequence encoding a hexa His sequence (HHHHHH) (SEQ ID NO.: 17) fused directly to Asp 375. The amplified gene was subcloned into pFastBacMam (Viva Biotech).
Recombinant baculovirus were generated according to Bac-to-Bac kit instructions (Life Technologies). […] Infections were carried out at 37° C. for 48 hours, harvested by centrifugation, and stored at −80° C. for purification.
Column was washed with 20 mM imidazole in the same buffer and Flag-PRMT6-His was eluted with 150 mM imidazole. Pooled fractions were dialysed against buffer Ni-A and further purified by anti-flag M2 affinity chromatography. Flag-PRMT6-His was eluted with 200 ug/ml FLAG peptide in the same buffer. Pooled fractions were dialysed in 20 mM Tris, 150 mM NaCl, 10% glycerol and 5 mM β-mercaptoethanol, pH 7.8. The purity of recovered protein was 95%.
General Procedure for PRMT6 Enzyme Assays on Peptide Substrates.
The assays were all performed in a buffer consisting of 20 mM Bicine (pH=7.6), 1 mM TCEP, 0.005% BSG, and 0.002% Tween 20, prepared on the day of use. Compounds in 100% DMSO (1 ul) were spotted into a polypropylene 384-well V-bottom plates (Greiner) using a Platemate Plus outfitted with a 384-channel head (Thermo Scientific). DMSO (1 ul) was added to Columns 11, 12, 23, 24, rows A-H for the maximum signal control and 1 ul of SAH, a known product and inhibitor of PRMT6, was added to columns 11, 12, 23, 24, rows I-P for the minimum signal control. A cocktail (40 ul) containing the PRMT6 enzyme was added by Multidrop Combi (Thermo-Fisher). The compounds were allowed to incubate with PRMT6 for 30 min at room temperature, then a cocktail (10 ul) containing SAM and peptide was added to initiate the reaction (final volume=51 ul). The final concentrations of the components were as follows: PRMT6 was 1 nM, ^3H-SAM was 200 nM, non-radiolabeled SAM was 250 nM, peptide was 75 nM, SAH in the minimum signal control wells was 1 mM, and the DMSO concentration was 2%. The assays were stopped by the addition of non-radiolabeled SAM (10 ul) to a final concentration of 400 uM, which dilutes the ^3H-SAM to a level where its incorporation into the peptide substrate is no longer detectable. 50 ul of the reaction in the 384-well polypropylene plate was then transferred to a 384-well Flashplate and the biotinylated peptides were allowed to bind to the streptavidin surface for at least 1 hour before being washed once with 0.1% Tween20 in a Biotek ELx405 plate washer. The plates were then read in a PerkinElmer TopCount plate reader to measure the quantity of ^3H-labeled peptide bound to the Flashplate surface, measured as disintegrations per minute (dpm) or alternatively, referred to as counts per minute (cpm).
Where dpm=disintegrations per minute, cmpd=signal in assay well, and min and max are the respective minimum and maximum signal controls. […]
Turning to `CN(CCN)Cc1nn(C)cc1[C@H]1CC[C@@]2(CC1)CC(C)(C)CO2` [compound 80], half-maximal inhibition (IC50) was put at 345 nM. That is a sub-micromolar value. For `CNCCN(C)Cc1c[nH]nc1[C@H]1CC[C@]2(CCCOC2)CC1` [compound 4, N1-((3-((6s,9s)-2-oxaspiro[5.5]undecan-9-yl)-1H-pyrazol-4-yl)methyl)-N1,N2-dimethylethane-1,2-diamine] the value was 33.1 nM; for `CNCCN(C)Cc1c[nH]nc1C1C[C@@H](C(=O)N(C)CC(C)C)C(C)(C)[C@H](C(=O)N(C)CC(C)C)C1` (stereo partly drawn) [compound 12], more than 10000 nM; for `CNCCN(C)Cc1nn(C)nc1C1CCC2(CC1)CC(C)(C)CO2` (stereo not drawn) [compound 86], 444 nM.

In turn, `CC[C@]12CC[C@](CC)(C[C@H](c3n[nH]cc3CN(C)CCNC)C1)O2` [compound 37, N1-((3-((1R,3r,5S)-1,5-diethyl-8-oxabicyclo[3.2.1]octan-3-yl)-1H-pyrazol-4-yl)methyl)-N1,N2-dimethylethane-1,2-diamine] gave an IC50 of 128 nM. For `CNCCN(C)Cc1c[nH]nc1[C@H]1CC[C@@]2(CCCCO2)CC1` [compound 3] the value was 27.7 nM.

`CNCCN(C)Cc1c[nH]nc1[C@H]1CC[C@@H](COCC(F)(F)F)CC1` [compound 23, N1,N2-dimethyl-N1-((3-((1s,4s)-4-((2,2,2-trifluoroethoxy)methyl)cyclohexyl)-1H-pyrazol-4-yl)methyl)ethane-1,2-diamine] yielded an IC50 of 78.5 nM. As for `CNCCN(C)Cc1cn(C)nc1C1CCC(C)(C)[C@@H](C(=O)NCC(C)C)C1` (stereo partly drawn) [compound 25], the IC50 turned out to be 1610 nM. This IC50 is about 21-fold higher than that of the compound before. `CNCCN(C)Cc1c(C)[nH]nc1[C@H]1CC[C@]2(CC1)CC(C)(C)CO2` [compound 58] gave an IC50 of 163 nM.

For `CNCCN(C)Cc1c[nH]nc1C1CCC(C)(C)[C@H](COCCCOC)C1` (stereo partly drawn) [compound 30, {2-[({3-[(3R)-3-[(3-methoxypropoxy)methyl]-4,4-dimethylcyclohexyl]-1H-pyrazol-4-yl}methyl)(methyl)amino]ethyl}(methyl)amine], half-maximal inhibition (IC50) required 60.3 nM. `CNCCN(C)Cc1c[nH]nc1[C@H]1CC[C@]2(CCN(CCC(C)C)C2=O)CC1` [compound 10] had an IC50 of 38.5 nM. As for `CNCCN(C)Cc1nnc(C)n1[C@H]1CC[C@]2(CC1)CC(C)(C)CO2` [compound 93], the IC50 was more than 10000 nM. The same measure for `CNCCN(C)Cc1n[nH]cc1[C@H]1CC[C@]2(CC1)CC(C)(C)CO2` [compound 116]: 134 nM; for `CCOC[C@@H]1CC(c2n[nH]cc2CN(C)CCNC)CCC1(C)C` (stereo partly drawn) [compound 31, {2-[({3-[(3R)-3-(ethoxymethyl)-4,4-dimethylcyclohexyl]-1H-pyrazol-4-yl}methyl)(methyl)amino]ethyl}(methyl)amine]: 45.6 nM.

Compound `CNCCN(C)Cc1ccnn1[C@H]1CC[C@]2(CC1)CC(C)(C)CO2` [compound 50, N1-((1-((5r,8r)-3,3-dimethyl-1-oxaspiro[4.5]decan-8-yl)-1H-pyrazol-5-yl)methyl)-N1,N2-dimethylethane-1,2-diamine] gave an IC50 of 502 nM. The same measure for `CNCCN(C)Cc1c[nH]nc1C1CCC2(CCC(OC)CC2)CC1` (stereo not drawn) [compound 9, N1-((3-(9-methoxyspiro[5.5]undecan-3-yl)-1H-pyrazol-4-yl)methyl)-N1,N2-dimethylethane-1,2-diamine]: 13.5 nM; for `CNCCN(C)Cc1c[nH]nc1C1CC(COCC2CC2)CC(COCC2CC2)C1` (stereo not drawn) [compound 2]: 741 nM. The same measure for `CNCCN(C)Cc1c[nH]nc1[C@H]1CC[C@@]2(CCCOC2)CC1` [compound 5, N1-((3-((6r,9r)-2-oxaspiro[5.5]undecan-9-yl)-1H-pyrazol-4-yl)methyl)-N1,N2-dimethylethane-1,2-diamine]: 35.9 nM; for `CNCCN(C)Cc1nn[nH]c1[C@H]1CC[C@@]2(CC1)CC(C)(C)CO2` [compound 67]: 51.1 nM. `Cc1[nH]nc(C2CCC3(CC2)CC(C)(C)CO3)c1CN(C)CCN` (stereo not drawn) [compound 59] displayed an IC50 of 131 nM.

For `CNCCN(C)Cc1c(C)[nH]nc1[C@H]1CC[C@@]2(CC1)CC(C)(C)CO2` [compound 57], the IC50 came out at 94 nM. This IC50 and that of the compound before are within 1.5-fold of each other.
